Structures are written as SMILES. Several values for one entry are separate records, joined by “and”; a condition that tells them apart may be missing. Equal entries are not always repeated.

Usually EC50 stands for the concentration at which the effect is half-maximal. Read a low EC50 as an effect from little substance.

One assay can be described thus: The binding affinities (Ki) of compounds were determined using fluorescence polarization assays (FPA) that measure their ability to competitively displace a Bad-derived peptide from Bcl-xL. Compound efficacy (EC50) in a cellular context was evaluated by testing their ability to reverse the protection from cytokine w.
Details: not given
(In fluorescence polarisation assays a small probe gives low polarisation when free and higher when bound to something large.)
Compound `CN(C)CC[C@H](CSc1ccccc1)Nc1ccc(S(=O)(=O)NC(=O)c2ccc(N3CCN(C(=O)c4ccccc4)CC3)cc2)cc1[N+](=O)[O-]` [4-(4-benzoylpiperazin-1-yl)-N-[(4-{[(2R)-4-(dimethylamino)-1-(phenylsulfanyl)butan-2-yl]amino}-3-nitrobenzene)sulfonyl]benzamide] yielded an EC50 of more than 50000 nM.
Still for that read-out and setting: the result for `CN(C)CC[C@H](CSc1ccccc1)Nc1ccc(S(=O)(=O)NC(=O)c2ccc(N3CCN(Cc4ccccc4)CC3)cc2)cc1[N+](=O)[O-]` [4-(4-benzylpiperazin-1-yl)-N-[(4-{[(2R)-4-(dimethylamino)-1-(phenylsulfanyl)butan-2-yl]amino}-3-nitrobenzene)sulfonyl]benzamide] reads 1700 nM; that for `CN(C)CC[C@H](CSc1ccccc1)Nc1ccc(S(=O)(=O)NC(=O)c2ccc(N3CCN(Cc4ccccc4-c4ccccc4Cl)CC3)cc2)cc1[N+](=O)[O-]` [4-(4-{[2-(2-chlorophenyl)phenyl]methyl}piperazin-1-yl)-N-[(4-{[(2R)-4-(dimethylamino)-1-(phenylsulfanyl)butan-2-yl]amino}-3-nitrobenzene)sulfonyl]benzamide], 56 nM and 27 nM.
Same read-out and setting: the result for `CN(C)CC[C@H](CSc1ccccc1)Nc1ccc(S(=O)(=O)NC(=O)c2ccc(N3CCN(Cc4ccccc4-c4cccc(Cl)c4)CC3)cc2)cc1[N+](=O)[O-]` [4-(4-{[2-(3-chlorophenyl)phenyl]methyl}piperazin-1-yl)-N-[(4-{[(2R)-4-(dimethylamino)-1-(phenylsulfanyl)butan-2-yl]amino}-3-nitrobenzene)sulfonyl]benzamide] reads 180 nM and 33 nM.
Still for that read-out and setting: the result for `CN(C)CC[C@H](CSc1ccccc1)Nc1ccc(S(=O)(=O)NC(=O)c2ccc(N3CCN(Cc4ccccc4NC4CCCCC4)CC3)cc2)cc1[N+](=O)[O-]` [4-(4-{[2-(cyclohexylamino)phenyl]methyl}piperazin-1-yl)-N-[(4-{[(2R)-4-(dimethylamino)-1-(phenylsulfanyl)butan-2-yl]amino}-3-nitrobenzene)sulfonyl]benzamide] reads 660 nM and 340 nM; that for `CN(C)CC[C@H](CSc1ccccc1)Nc1ccc(S(=O)(=O)NC(=O)c2ccc(N3CCN(C(=O)Nc4ccccc4)CC3)cc2)cc1[N+](=O)[O-]` [4-(4-{[(4-{[(2R)-4-(dimethylamino)-1-(phenylsulfanyl)butan-2-yl]amino}-3-nitrobenzene)sulfonyl]carbamoyl}phenyl)-N-phenylpiperazine-1-carboxamide], more than 50000 nM; that for `CN(C)CC[C@H](CSc1ccccc1)Nc1ccc(S(=O)(=O)NC(=O)c2ccc(N3CCN(Cc4ccccc4C4CCCCC4)CC3)cc2)cc1[N+](=O)[O-]` [4-{4-[(2-cyclohexylphenyl)methyl]piperazin-1-yl}-N-[(4-{[(2R)-4-(dimethylamino)-1-(phenylsulfanyl)butan-2-yl]amino}-3-nitrobenzene)sulfonyl]benzamide], 340 nM and 120 nM.
`CC1OC2(CCN(c3ccc(C(=O)NS(=O)(=O)c4ccc(N[C@H](CCN(C)C)CSc5ccccc5)c([N+](=O)[O-])c4)cc3)CC2)N(Cc2ccccc2)C1=O` (stereo partly drawn) [4-{4-benzyl-2-methyl-3-oxo-1-oxa-4,8-diazaspiro[4.5]decan-8-yl}-N-[(4-{[(2R)-4-(dimethylamino)-1-(phenylsulfanyl)butan-2-yl]amino}-3-nitrobenzene)sulfonyl]benzamide] came in with an EC50 of more than 50000 nM.
Same read-out and setting: next, `CN(C)CC[C@H](CSc1ccccc1)Nc1ccc(S(=O)(=O)NC(=O)c2ccc(N3CCC(C)(C)CC3)cc2)cc1[N+](=O)[O-]` [N-[(4-{[(2R)-4-(dimethylamino)-1-(phenylsulfanyl)butan-2-yl]amino}-3-nitrobenzene)sulfonyl]-4-(4,4-dimethylpiperidin-1-yl)benzamide]: 2200 nM; `COc1cccc(-c2ccccc2CN2CCN(c3ccc(C(=O)NS(=O)(=O)c4ccc(N[C@H](CCN(C)C)CSc5ccccc5)c([N+](=O)[O-])c4)cc3)CC2)c1` [N-[(4-{[(2R)-4-(dimethylamino)-1-(phenylsulfanyl)butan-2-yl]amino}-3-nitrobenzene)sulfonyl]-4-(4-{[2-(3-methoxyphenyl)phenyl]methyl}piperazin-1-yl)benzamide]: 380 nM and 460 nM.
The same measure, in the same setting: next, `CN(C)CC[C@H](CSc1ccccc1)Nc1ccc(S(=O)(=O)NC(=O)c2ccc(N3CCN(Cc4ccccc4-c4ccc(F)cc4)CC3)cc2)cc1[N+](=O)[O-]` [N-[(4-{[(2R)-4-(dimethylamino)-1-(phenylsulfanyl)butan-2-yl]amino}-3-nitrobenzene)sulfonyl]-4-(4-{[2-(4-fluorophenyl)phenyl]methyl}piperazin-1-yl)benzamide]: 130 nM and 27 nM; `COc1ccc(-c2ccccc2CN2CCN(c3ccc(C(=O)NS(=O)(=O)c4ccc(N[C@H](CCN(C)C)CSc5ccccc5)c([N+](=O)[O-])c4)cc3)CC2)cc1` [N-[(4-{[(2R)-4-(dimethylamino)-1-(phenylsulfanyl)butan-2-yl]amino}-3-nitrobenzene)sulfonyl]-4-(4-{[2-(4-methoxyphenyl)phenyl]methyl}piperazin-1-yl)benzamide]: 30 nM and 25 nM.
On the same count and under the same terms, next, `CN(C)CC[C@H](CSc1ccccc1)Nc1ccc(S(=O)(=O)NC(=O)c2ccc(N3CCN(Cc4ccccc4-c4ccc(-c5ccccc5)cc4)CC3)cc2)cc1[N+](=O)[O-]` [N-[(4-{[(2R)-4-(dimethylamino)-1-(phenylsulfanyl)butan-2-yl]amino}-3-nitrobenzene)sulfonyl]-4-(4-{[2-(4-phenylphenyl)phenyl]methyl}piperazin-1-yl)benzamide]: 22 nM and 68 nM.
Regarding `CSc1ccccc1CN1CCN(c2ccc(C(=O)NS(=O)(=O)c3ccc(N[C@H](CCN(C)C)CSc4ccccc4)c([N+](=O)[O-])c3)cc2)CC1` [N-[(4-{[(2R)-4-(dimethylamino)-1-(phenylsulfanyl)butan-2-yl]amino}-3-nitrobenzene)sulfonyl]-4-(4-{[2-(methylsulfanyl)phenyl]methyl}piperazin-1-yl)benzamide], the EC50 is 95 nM and 130 nM.
Same read-out and setting: next, `CN(C)CC[C@H](CSc1ccccc1)Nc1ccc(S(=O)(=O)NC(=O)c2ccc(N3CCN(Cc4ccccc4N4CCOCC4)CC3)cc2)cc1[N+](=O)[O-]` [N-[(4-{[(2R)-4-(dimethylamino)-1-(phenylsulfanyl)butan-2-yl]amino}-3-nitrobenzene)sulfonyl]-4-(4-{[2-(morpholin-4-yl)phenyl]methyl}piperazin-1-yl)benzamide]: 430 nM and 460 nM; `CN(C)CC[C@H](CSc1ccccc1)Nc1ccc(S(=O)(=O)NC(=O)c2ccc(N3CCN(Cc4ccccc4-c4cccnc4)CC3)cc2)cc1[N+](=O)[O-]` [N-[(4-{[(2R)-4-(dimethylamino)-1-(phenylsulfanyl)butan-2-yl]amino}-3-nitrobenzene)sulfonyl]-4-(4-{[2-(pyridin-3-yl)phenyl]methyl}piperazin-1-yl)benzamide]: 800 nM and 820 nM.
Same read-out and setting: the result for `CN(C)CC[C@H](CSc1ccccc1)Nc1ccc(S(=O)(=O)NC(=O)c2ccc(N3CCN(Cc4ccccc4C(F)(F)F)CC3)cc2)cc1[N+](=O)[O-]` [N-[(4-{[(2R)-4-(dimethylamino)-1-(phenylsulfanyl)butan-2-yl]amino}-3-nitrobenzene)sulfonyl]-4-(4-{[2-(trifluoromethyl)phenyl]methyl}piperazin-1-yl)benzamide] reads 390 nM and 130 nM; that for `CN(C)CC[C@H](CSc1ccccc1)Nc1ccc(S(=O)(=O)NC(=O)c2ccc(N3CCC(=Cc4ccccn4)CC3)cc2)cc1[N+](=O)[O-]` [N-[(4-{[(2R)-4-(dimethylamino)-1-(phenylsulfanyl)butan-2-yl]amino}-3-nitrobenzene)sulfonyl]-4-[4-(pyridin-2-ylmethylidene)piperidin-1-yl]benzamide], 550 nM and 1380 nM.
On the same count and under the same terms, the result for `CN(C)CC[C@H](CSc1ccccc1)Nc1ccc(S(=O)(=O)NC(=O)c2ccc(N3CCC(=Cc4cccnc4)CC3)cc2)cc1[N+](=O)[O-]` [N-[(4-{[(2R)-4-(dimethylamino)-1-(phenylsulfanyl)butan-2-yl]amino}-3-nitrobenzene)sulfonyl]-4-[4-(pyridin-3-ylmethylidene)piperidin-1-yl]benzamide] reads 1900 nM and 5300 nM.
Take `CN(C)CC[C@H](CSc1ccccc1)Nc1ccc(S(=O)(=O)NC(=O)c2ccc(N3CCN(Cc4ccccc4-c4ccc(C(F)(F)F)cc4)CC3)cc2)cc1[N+](=O)[O-]` [N-[(4-{[(2R)-4-(dimethylamino)-1-(phenylsulfanyl)butan-2-yl]amino}-3-nitrobenzene)sulfonyl]-4-[4-({2-[4-(trifluoromethyl)phenyl]phenyl}methyl)piperazin-1-yl]benzamide]: the EC50 was 40 nM and 13 nM.
Turning to `CN(C)CC[C@H](CSc1ccccc1)Nc1ccc(S(=O)(=O)NC(=O)c2ccc(N3CCN(Cc4ccccc4S(C)(=O)=O)CC3)cc2)cc1[N+](=O)[O-]` [N-[(4-{[(2R)-4-(dimethylamino)-1-(phenylsulfanyl)butan-2-yl]amino}-3-nitrobenzene)sulfonyl]-4-{4-[(2-methanesulfonylphenyl)methyl]piperazin-1-yl}benzamide], the EC50 is 5500 nM and 6800 nM.
The same measure, in the same setting: next, `COc1ccccc1CN1CCN(c2ccc(C(=O)NS(=O)(=O)c3ccc(N[C@H](CCN(C)C)CSc4ccccc4)c([N+](=O)[O-])c3)cc2)CC1` [N-[(4-{[(2R)-4-(dimethylamino)-1-(phenylsulfanyl)butan-2-yl]amino}-3-nitrobenzene)sulfonyl]-4-{4-[(2-methoxyphenyl)methyl]piperazin-1-yl}benzamide]: 390 nM and 950 nM; `Cc1ccccc1CN1CCN(c2ccc(C(=O)NS(=O)(=O)c3ccc(N[C@H](CCN(C)C)CSc4ccccc4)c([N+](=O)[O-])c3)cc2)CC1` [N-[(4-{[(2R)-4-(dimethylamino)-1-(phenylsulfanyl)butan-2-yl]amino}-3-nitrobenzene)sulfonyl]-4-{4-[(2-methylphenyl)methyl]piperazin-1-yl}benzamide]: 410 nM and 940 nM; `CN(C)CC[C@H](CSc1ccccc1)Nc1ccc(S(=O)(=O)NC(=O)c2ccc(N3CCN(Cc4ccccc4-c4ccccc4)CC3)cc2)cc1[N+](=O)[O-]` [N-[(4-{[(2R)-4-(dimethylamino)-1-(phenylsulfanyl)butan-2-yl]amino}-3-nitrobenzene)sulfonyl]-4-{4-[(2-phenylphenyl)methyl]piperazin-1-yl}benzamide]: 18 nM and 16 nM.

Still in this assay, the particulars now being: pH 7.4.
For the compound `CN(C)CC[C@H](CSc1ccccc1)Nc1ccc(S(=O)(=O)NC(=O)c2ccc(N3CCN(C(=O)c4ccccc4)CC3)cc2)cc1[N+](=O)[O-]` [4-(4-benzoylpiperazin-1-yl)-N-[(4-{[(2R)-4-(dimethylamino)-1-(phenylsulfanyl)butan-2-yl]amino}-3-nitrobenzene)sulfonyl]benzamide], the midpoint of the response, the EC50, lay at 14600 nM.
On the same count and under the same terms, the result for `CN(C)CC[C@H](CSc1ccccc1)Nc1ccc(S(=O)(=O)NC(=O)c2ccc(N3CCN(Cc4ccccc4)CC3)cc2)cc1[N+](=O)[O-]` [4-(4-benzylpiperazin-1-yl)-N-[(4-{[(2R)-4-(dimethylamino)-1-(phenylsulfanyl)butan-2-yl]amino}-3-nitrobenzene)sulfonyl]benzamide] reads 1100 nM; that for `CN(C)CC[C@H](CSc1ccccc1)Nc1ccc(S(=O)(=O)NC(=O)c2ccc(N3CCN(C(=O)Nc4ccccc4)CC3)cc2)cc1[N+](=O)[O-]` [4-(4-{[(4-{[(2R)-4-(dimethylamino)-1-(phenylsulfanyl)butan-2-yl]amino}-3-nitrobenzene)sulfonyl]carbamoyl}phenyl)-N-phenylpiperazine-1-carboxamide], more than 50000 nM.
Still for that read-out and setting: next, `CC1OC2(CCN(c3ccc(C(=O)NS(=O)(=O)c4ccc(N[C@H](CCN(C)C)CSc5ccccc5)c([N+](=O)[O-])c4)cc3)CC2)N(Cc2ccccc2)C1=O` (stereo partly drawn) [4-{4-benzyl-2-methyl-3-oxo-1-oxa-4,8-diazaspiro[4.5]decan-8-yl}-N-[(4-{[(2R)-4-(dimethylamino)-1-(phenylsulfanyl)butan-2-yl]amino}-3-nitrobenzene)sulfonyl]benzamide]: more than 20000 nM.

Values taken from BindingDB's records for doi:10.1021/jm061152t (Abbott Laboratories, 2007).
